Assay results reported in ChEMBL document CHEMBL1141406, “Design, synthesis, and evaluation of naphthalene-sulfonamide antagonists of human CCR8” (J Med Chem, 2007).

Key:
[1] = Apparent permeability from basolateral to apical side of Caco-2 cells; type: ADME, cell-based; conditions: human
[2] = biological target: 5-hydroxytryptamine receptor 1B (Homo sapiens) (UniProt P28222); assay: Inhibition of 5HT1B receptor at 10 uM
[3] = biological target: Voltage-gated inwardly rectifying potassium channel KCNH2 (Homo sapiens, UniProt Q12809); assay: Binding affinity to hERG expressed in HEK293 cells; type: cell-based
[4] = Volume of distribution of steady state in dog at 10 mg/kg, po and 1 mg/kg, iv; type: ADME, organism-based, Canis lupus familiaris; conditions: in vivo, read-out: Vss
Rattus norvegicus [5] = organism: Rattus norvegicus; assay: Inhibition of rat calcium channel L type at benzothiazepine site at 10 uM
[6] = Clearance in rat at 10 mg/kg, po and 1 mg/kg, iv; type: ADME, organism-based; conditions: in vivo
[7] = Apparent permeability from apical to basolateral side of Caco-2 cells; type: ADME, cell-based; conditions: human
[8] = Stability in dog at 10 mg/kg, po and 1 mg/kg, iv; type: ADME, organism-based, Canis lupus familiaris; conditions: in vivo
[9] = Bioavailability in rat at 10 mg/kg, po and 1 mg/kg, iv; type: ADME, organism-based; conditions: in vivo
[10] = biological target: Muscarinic acetylcholine receptor (Homo sapiens) (UniProt P20309+P08173+P11229+P08172+P08912); assay: Inhibition of peripheral non-selective guinea pig muscarinic receptor at 10 uM; type: protein assay; conditions: Cavia porcellus, target entry is the homologue from another species
[11] = biological target: Adrenergic receptor alpha-1 (Homo sapiens) (UniProt P35348+P25100+P35368); assay: Inhibition of non selective adrenergic alpha-1 receptor at 10 uM; type: protein assay
[12] = Bioavailability in dog at 10 mg/kg, po and 1 mg/kg, iv; type: ADME, organism-based, Canis lupus familiaris; conditions: in vivo
[13] = Stability in mouse plasma; type: ADME, cell-free
[14] = biological target: T1, Cholecystokinin receptor type A (Rattus norvegicus) (UniProt P30551); assay: Inhibition of rat CCKA at 10 uM
T1 sequence (whole entry): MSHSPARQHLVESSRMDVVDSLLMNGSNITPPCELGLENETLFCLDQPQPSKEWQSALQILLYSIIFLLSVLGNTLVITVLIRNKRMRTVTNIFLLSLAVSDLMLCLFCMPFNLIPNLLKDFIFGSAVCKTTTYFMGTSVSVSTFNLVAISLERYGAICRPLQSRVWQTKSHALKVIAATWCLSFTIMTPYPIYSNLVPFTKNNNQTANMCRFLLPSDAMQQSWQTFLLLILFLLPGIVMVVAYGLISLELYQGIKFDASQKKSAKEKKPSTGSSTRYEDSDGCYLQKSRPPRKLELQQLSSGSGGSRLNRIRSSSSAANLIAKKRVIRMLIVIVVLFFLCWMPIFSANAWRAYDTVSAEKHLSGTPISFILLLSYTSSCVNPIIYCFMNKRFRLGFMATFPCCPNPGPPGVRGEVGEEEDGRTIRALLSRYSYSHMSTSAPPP

[15] = Ratio of apparent permeability from basolateral to apical over apical to basolateral in Caco-2 cells; conditions: human, read-out: Selectivity ratio
[16] = biological target: 5-hydroxytryptamine receptor 2A (Homo sapiens) (UniProt P28223); assay: Inhibition of human 5HT2A receptor at 10 uM
Sequence of 5-hydroxytryptamine receptor 2A (Homo sapiens) (P28223 whole entry): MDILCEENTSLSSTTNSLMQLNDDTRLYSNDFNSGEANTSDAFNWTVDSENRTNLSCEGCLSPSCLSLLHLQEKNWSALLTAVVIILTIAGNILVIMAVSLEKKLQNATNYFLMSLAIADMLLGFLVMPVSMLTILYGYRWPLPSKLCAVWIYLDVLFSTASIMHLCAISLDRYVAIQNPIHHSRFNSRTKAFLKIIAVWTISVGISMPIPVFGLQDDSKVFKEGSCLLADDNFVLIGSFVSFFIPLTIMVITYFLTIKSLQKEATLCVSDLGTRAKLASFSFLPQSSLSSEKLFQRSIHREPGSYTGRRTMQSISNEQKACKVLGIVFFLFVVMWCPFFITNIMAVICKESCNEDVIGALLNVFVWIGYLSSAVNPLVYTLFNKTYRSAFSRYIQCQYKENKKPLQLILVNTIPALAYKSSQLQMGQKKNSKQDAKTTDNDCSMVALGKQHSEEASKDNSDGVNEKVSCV

[17] = Clearance in dog at 10 mg/kg, po and 1 mg/kg, iv; type: ADME, organism-based, Canis lupus familiaris; conditions: in vivo
Rattus norvegicus [18] = organism: Rattus norvegicus; assay: Inhibition of rat calcium channel L type at dihydropyridine site at 10 uM
[19] = biological target: Beta-2 adrenergic receptor (Homo sapiens) (UniProt P07550); assay: Inhibition of human recombinant adrenergic beta 2 receptor at 10 uM
Sequence of Beta-2 adrenergic receptor (Homo sapiens) (P07550 whole entry, looked up): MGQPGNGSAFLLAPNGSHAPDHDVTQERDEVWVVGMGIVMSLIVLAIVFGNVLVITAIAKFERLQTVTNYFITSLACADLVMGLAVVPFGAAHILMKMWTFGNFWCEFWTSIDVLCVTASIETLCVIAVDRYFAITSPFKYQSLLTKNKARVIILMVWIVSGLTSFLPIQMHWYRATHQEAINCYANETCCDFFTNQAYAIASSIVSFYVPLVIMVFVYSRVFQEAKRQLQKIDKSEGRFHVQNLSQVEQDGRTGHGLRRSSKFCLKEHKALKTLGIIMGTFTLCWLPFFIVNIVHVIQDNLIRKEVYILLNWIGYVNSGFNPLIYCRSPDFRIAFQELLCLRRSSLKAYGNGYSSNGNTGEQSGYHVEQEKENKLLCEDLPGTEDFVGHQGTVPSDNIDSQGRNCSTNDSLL

Rattus norvegicus [20] = organism: Rattus norvegicus; assay: Inhibition of rat non-selective opiate receptor at 10 uM
[21] = biological target: Sodium-dependent serotonin transporter (Rattus norvegicus) (UniProt P31652); assay: Inhibition of rat serotonin transporter at 10 uM
Sequence of Sodium-dependent serotonin transporter (Rattus norvegicus) (P31652 whole entry): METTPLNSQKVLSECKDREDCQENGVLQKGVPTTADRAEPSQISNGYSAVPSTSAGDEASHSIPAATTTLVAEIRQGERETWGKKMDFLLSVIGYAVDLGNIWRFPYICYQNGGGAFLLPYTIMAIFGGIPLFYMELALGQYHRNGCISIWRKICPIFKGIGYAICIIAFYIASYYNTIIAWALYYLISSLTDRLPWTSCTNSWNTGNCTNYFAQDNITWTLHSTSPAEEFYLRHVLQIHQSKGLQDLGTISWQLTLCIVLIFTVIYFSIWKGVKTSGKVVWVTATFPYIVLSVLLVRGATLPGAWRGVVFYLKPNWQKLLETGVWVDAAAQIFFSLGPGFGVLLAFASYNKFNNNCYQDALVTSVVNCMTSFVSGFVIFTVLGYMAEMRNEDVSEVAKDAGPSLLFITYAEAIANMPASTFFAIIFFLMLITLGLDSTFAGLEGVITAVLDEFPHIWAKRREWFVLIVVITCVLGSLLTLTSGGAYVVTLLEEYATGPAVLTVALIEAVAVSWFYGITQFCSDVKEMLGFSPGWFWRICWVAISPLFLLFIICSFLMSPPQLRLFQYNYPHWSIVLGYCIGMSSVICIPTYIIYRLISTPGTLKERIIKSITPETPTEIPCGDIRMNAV

[22] = biological target: Histamine H2 receptor (Rattus norvegicus) (UniProt P25102); assay: Inhibition of rat histamine H2 receptor at 10 uM
Sequence of Histamine H2 receptor (Rattus norvegicus) (P25102 whole entry): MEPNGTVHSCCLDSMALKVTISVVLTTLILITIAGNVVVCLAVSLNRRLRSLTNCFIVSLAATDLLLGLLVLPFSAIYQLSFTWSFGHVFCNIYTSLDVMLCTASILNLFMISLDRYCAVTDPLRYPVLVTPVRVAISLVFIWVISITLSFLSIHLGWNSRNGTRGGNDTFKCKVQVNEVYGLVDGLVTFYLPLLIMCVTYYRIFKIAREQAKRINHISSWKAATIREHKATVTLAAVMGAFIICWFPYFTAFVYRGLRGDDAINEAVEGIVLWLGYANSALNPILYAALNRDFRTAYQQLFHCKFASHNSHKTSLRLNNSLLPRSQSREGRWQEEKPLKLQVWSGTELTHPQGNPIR

[23] = Stability in rat at 10 mg/kg, po and 1 mg/kg, iv; type: ADME, organism-based; conditions: in vivo
[24] = biological target: T2, 5-hydroxytryptamine receptor 1A (Homo sapiens) (UniProt P08908); assay: Inhibition of human recombinant 5HT1A receptor at 10 uM
T2 sequence (whole entry): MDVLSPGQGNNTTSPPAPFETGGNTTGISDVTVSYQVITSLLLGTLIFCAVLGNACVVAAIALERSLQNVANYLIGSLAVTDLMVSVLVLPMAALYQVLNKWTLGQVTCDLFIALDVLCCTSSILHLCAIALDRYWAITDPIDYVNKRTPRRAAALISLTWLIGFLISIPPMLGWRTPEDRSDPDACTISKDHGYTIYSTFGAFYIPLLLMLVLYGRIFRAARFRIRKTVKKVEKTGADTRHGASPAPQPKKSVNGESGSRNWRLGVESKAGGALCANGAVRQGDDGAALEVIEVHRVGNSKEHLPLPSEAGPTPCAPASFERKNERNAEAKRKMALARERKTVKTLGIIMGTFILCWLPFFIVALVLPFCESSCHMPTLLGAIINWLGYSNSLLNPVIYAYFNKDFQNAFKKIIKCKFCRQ

[25] = biological target: Sodium-dependent dopamine transporter (Rattus norvegicus) (UniProt P23977); assay: Inhibition of rat dopamine transporter at 10 uM
Sequence of Sodium-dependent dopamine transporter (Rattus norvegicus) (P23977 whole entry): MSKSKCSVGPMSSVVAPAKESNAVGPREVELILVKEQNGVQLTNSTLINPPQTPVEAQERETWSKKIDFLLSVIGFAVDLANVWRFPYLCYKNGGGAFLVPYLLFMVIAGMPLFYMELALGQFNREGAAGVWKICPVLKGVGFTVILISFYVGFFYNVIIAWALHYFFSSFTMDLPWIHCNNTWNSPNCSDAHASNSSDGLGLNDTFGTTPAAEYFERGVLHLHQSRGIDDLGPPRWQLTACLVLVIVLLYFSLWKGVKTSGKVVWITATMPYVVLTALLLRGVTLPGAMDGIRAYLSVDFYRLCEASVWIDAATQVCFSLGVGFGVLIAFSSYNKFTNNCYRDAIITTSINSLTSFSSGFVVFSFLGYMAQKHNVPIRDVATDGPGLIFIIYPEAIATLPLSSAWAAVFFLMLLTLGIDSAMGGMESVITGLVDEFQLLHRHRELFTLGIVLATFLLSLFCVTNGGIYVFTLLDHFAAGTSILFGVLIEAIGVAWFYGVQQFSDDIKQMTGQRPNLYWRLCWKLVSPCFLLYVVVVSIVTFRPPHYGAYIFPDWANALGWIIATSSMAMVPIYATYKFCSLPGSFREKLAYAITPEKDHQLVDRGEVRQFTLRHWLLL

[26] = Volume of distribution of steady state in rat at 10 mg/kg, po and 1 mg/kg, iv; type: ADME, organism-based; conditions: in vivo, read-out: Vss
[27] = biological target: C-C chemokine receptor type 8 (Homo sapiens, UniProt P51685); assay: Binding affinity to human CCR8 expressed in L1.2 cells by FMAT assay; type: cell-based
Sequence of C-C chemokine receptor type 8 (P51685 whole entry): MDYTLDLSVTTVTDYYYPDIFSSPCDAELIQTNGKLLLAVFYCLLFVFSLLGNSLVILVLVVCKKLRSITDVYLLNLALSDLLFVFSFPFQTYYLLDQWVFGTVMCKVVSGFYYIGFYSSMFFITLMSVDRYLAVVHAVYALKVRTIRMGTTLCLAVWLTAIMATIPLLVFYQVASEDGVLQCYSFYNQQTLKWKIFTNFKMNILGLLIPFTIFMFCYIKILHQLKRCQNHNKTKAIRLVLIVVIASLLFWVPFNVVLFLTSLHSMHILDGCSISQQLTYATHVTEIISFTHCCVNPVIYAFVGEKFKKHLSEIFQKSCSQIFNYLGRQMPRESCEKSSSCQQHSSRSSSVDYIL

Cytochrome P450 3A4 = Cytochrome P450 3A4 (Homo sapiens, UniProt P08684); assay: Inhibition of CYP3A4; type: ADME
Sequence of Cytochrome P450 3A4 (P08684 whole entry): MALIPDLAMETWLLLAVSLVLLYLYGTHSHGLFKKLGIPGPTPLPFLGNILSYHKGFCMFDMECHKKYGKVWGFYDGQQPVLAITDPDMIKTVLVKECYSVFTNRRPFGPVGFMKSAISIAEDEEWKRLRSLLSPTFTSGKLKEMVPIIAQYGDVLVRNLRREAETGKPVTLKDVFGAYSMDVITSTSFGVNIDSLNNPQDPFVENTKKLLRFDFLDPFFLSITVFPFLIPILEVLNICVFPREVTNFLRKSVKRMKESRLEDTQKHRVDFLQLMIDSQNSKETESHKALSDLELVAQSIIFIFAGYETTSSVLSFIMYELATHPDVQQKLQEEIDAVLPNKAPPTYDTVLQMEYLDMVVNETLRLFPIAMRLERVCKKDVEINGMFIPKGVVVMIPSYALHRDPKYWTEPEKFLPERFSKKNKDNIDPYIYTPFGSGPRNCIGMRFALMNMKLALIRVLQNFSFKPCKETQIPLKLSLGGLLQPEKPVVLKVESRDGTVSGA

[28] = biological target: D(1A) dopamine receptor (Homo sapiens) (UniProt P21728); assay: Inhibition of human recombinant dopamine D1 receptor at 10 uM
Sequence of D(1A) dopamine receptor (Homo sapiens) (P21728 whole entry): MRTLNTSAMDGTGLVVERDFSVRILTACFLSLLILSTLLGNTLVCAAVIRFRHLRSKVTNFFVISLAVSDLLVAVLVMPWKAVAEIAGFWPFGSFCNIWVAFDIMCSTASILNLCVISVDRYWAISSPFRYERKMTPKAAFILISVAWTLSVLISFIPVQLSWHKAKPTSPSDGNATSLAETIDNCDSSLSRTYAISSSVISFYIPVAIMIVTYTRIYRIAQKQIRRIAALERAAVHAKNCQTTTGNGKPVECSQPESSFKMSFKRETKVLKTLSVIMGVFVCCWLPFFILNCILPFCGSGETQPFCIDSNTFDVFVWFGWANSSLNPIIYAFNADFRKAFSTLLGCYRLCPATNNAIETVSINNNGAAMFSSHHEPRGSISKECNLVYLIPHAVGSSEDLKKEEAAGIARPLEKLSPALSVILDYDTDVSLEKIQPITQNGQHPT

[29] = Intrinsic clearance in liver microsomes; conditions: human
[30] = biological target: Beta-1 adrenergic receptor (Homo sapiens) (UniProt P08588); assay: Inhibition of human adrenergic beta 1 receptor at 10 uM
Sequence of Beta-1 adrenergic receptor (Homo sapiens) (P08588 whole entry, looked up): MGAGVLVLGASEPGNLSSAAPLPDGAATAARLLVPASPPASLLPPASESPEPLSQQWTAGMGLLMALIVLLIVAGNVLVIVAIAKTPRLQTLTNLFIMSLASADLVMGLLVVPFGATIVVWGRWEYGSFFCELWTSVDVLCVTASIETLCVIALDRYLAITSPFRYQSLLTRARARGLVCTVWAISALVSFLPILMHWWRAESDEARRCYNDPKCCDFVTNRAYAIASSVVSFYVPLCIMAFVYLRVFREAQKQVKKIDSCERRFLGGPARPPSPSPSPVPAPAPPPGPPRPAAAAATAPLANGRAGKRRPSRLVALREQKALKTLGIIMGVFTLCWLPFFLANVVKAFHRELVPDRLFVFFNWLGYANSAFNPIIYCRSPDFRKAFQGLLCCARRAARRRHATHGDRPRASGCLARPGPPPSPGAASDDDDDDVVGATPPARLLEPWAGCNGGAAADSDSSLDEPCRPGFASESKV

Sequence of 5-hydroxytryptamine receptor 1B (Homo sapiens) (P28222 whole entry): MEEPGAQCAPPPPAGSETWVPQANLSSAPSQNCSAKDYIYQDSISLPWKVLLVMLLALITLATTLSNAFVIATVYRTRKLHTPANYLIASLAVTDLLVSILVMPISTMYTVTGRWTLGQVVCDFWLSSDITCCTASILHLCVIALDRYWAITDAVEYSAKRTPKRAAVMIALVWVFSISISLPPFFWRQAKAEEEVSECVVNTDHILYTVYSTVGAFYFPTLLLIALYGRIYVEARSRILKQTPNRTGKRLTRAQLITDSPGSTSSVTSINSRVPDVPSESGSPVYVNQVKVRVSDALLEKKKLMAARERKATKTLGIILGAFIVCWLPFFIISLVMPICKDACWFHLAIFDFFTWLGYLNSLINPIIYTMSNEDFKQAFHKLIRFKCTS

Papp B→A [1]: 24 ×10⁻⁶ cm/s
inhibition [2]: 7.13%
Vd [4]: 1.5 L/kg
inhibition (Rattus norvegicus [5]): 10.2%
clearance [6]: 23.3 mL/min/kg
Papp A→B [7]: 17 ×10⁻⁶ cm/s
half-life [8]: 3.7 h
bioavailability [9]: 2%
inhibition [10]: 15.6%
inhibition [11]: -8.21%
bioavailability [12]: 10%
half-life [13]: 8.2 h
inhibition [14]: -1.01%
inhibition [16]: 18.4%
clearance [17]: 7 mL/min/kg
inhibition (Rattus norvegicus [18]): 5.81%
inhibition [19]: 21.5%
inhibition (Rattus norvegicus [20]): 21.4%
inhibition [21]: 12%
inhibition [22]: 9.16%
half-life [23]: 2.6 h
inhibition [24]: 10.5%
inhibition [25]: -9.19%
Vd [26]: 1.6 L/kg
Ki [27]: 0.0016 µM
IC50 (Cytochrome P450 3A4): > 10 µM
inhibition [28]: -5.14%
CLint scaled [29]: 95 mL/min/kg
inhibition [30]: 2.44%
SMILES: CCOC(=O)N1CCC(NS(=O)(=O)c2ccc(NC(=O)c3ccccc3C)c3ccccc23)CC1
Ki [3]: > 10 µM
efflux ratio [15]: 1.4
